Source: patent US20250296909A1, “NOVEL BENZENE DERIVATIVE AND IMMUNOSUPPRESSION-RELATED USE THEREOF” (PROVIBIO CO., LTD., priority 2021, published 2025)

Tests used:
[1] = system: T lymphocyte cell line Jurkat E6-1; test: Cytotoxicity experiment (CCK-8, relative cell survival); type: cell-based; settings: 24 hours, untreated cells = 100%
Summary of the method: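 Jurkat cells in RPMI-1640 with 10% FBS were exposed to compounds at several concentrations for 24 h at 37 °C, 5% CO2. CCK-8 added for 2 h, absorbance read at 450 nm; survival expressed relative to untreated cells (100%).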

[2] = system: spleen T cells; test: Cytokine secretion by anti-CD3/CD28-activated T cells (Cytometric Bead Array); type: cell-based, C57BL/6 mice; settings: 30 μM
Description: To confirm the effect of compounds of the present invention on the secretion of cytokines by T cells, the following experiment was conducted.
Spleens were harvested and minced from C57BL/6 mice at 7 weeks of age, and single cells were isolated using a strainer (40 μm pore size, SPL). Red blood cells were removed using ACK (Ammonium-Chloride-Potassium) lysis buffer to isolate only leukocytes. These were then reacted with 10 v/v % CD90.2 microbeads (130-121-278, Miltenyi Biotech.) at 4° C. for 20 minutes, resulting in the isolation of spleen T cells from magnetic-based purification. The T cells were cultured in a 96-well plate at an amount of 2×10^5 cells/well. For T cell activation, each well was treated with anti-CD3/CD28 antibodies at a concentration of 1 μg/mL. Subsequently, Vehicle (DMSO) and compounds (Compound 14, Compound 19, Compound 26, Compound 31, Compound 35, Compound 40, Compound 41, Compound 56, Compound 69, Compound 75) at a concentration of 30 μM were treated in each well, and it was cultured at 37° C. in a 5% CO2 incubator. After 24 and 72 hours, the T cell culture medium was taken, and centrifugation was performed at 13,000 rpm for 10 minutes to obtain the supernatant.
To measure the concentration of cytokines present in the T cell culture medium, Mouse Th1/Th2/Th17 Cytokine CBA Kit (Cytometric Bead Array kit) 560485 from BD Science was utilized for flow cytometry analysis. The secretion levels of IL-2 at 24 hours after each drug treatment, and IFN-γ, TNF-α, and IL-17A at 72 hours were measured after each drug treatment.

SMILES: CCCCCCCCCCCCNC(=O)c1cccnc1N [Compound 69]
- Relative cell survival rate (%) ([1]; 10 μM): 95%
- Relative cell survival rate (%) ([1]; 20 μM): 94%
- Relative cell survival rate (%) ([1]; 30 μM): 88%
- Relative cell survival rate (%) ([1]; 50 μM): 84%
- secretion of IL-2 ([2]; 24 hours after treatment, FIG. 3): significant decrease
- secretion of IFN-γ ([2]; 72 hours after treatment): significant decrease
- secretion of IL-17A ([2]; 72 hours after treatment): significant decrease
- secretion of TNF-α ([2]; 72 hours after treatment): significant decrease
